Where a name gives a salt, the structure may show the parent alone.

Chain of hNav1.7 (Q15858 whole entry, looked up): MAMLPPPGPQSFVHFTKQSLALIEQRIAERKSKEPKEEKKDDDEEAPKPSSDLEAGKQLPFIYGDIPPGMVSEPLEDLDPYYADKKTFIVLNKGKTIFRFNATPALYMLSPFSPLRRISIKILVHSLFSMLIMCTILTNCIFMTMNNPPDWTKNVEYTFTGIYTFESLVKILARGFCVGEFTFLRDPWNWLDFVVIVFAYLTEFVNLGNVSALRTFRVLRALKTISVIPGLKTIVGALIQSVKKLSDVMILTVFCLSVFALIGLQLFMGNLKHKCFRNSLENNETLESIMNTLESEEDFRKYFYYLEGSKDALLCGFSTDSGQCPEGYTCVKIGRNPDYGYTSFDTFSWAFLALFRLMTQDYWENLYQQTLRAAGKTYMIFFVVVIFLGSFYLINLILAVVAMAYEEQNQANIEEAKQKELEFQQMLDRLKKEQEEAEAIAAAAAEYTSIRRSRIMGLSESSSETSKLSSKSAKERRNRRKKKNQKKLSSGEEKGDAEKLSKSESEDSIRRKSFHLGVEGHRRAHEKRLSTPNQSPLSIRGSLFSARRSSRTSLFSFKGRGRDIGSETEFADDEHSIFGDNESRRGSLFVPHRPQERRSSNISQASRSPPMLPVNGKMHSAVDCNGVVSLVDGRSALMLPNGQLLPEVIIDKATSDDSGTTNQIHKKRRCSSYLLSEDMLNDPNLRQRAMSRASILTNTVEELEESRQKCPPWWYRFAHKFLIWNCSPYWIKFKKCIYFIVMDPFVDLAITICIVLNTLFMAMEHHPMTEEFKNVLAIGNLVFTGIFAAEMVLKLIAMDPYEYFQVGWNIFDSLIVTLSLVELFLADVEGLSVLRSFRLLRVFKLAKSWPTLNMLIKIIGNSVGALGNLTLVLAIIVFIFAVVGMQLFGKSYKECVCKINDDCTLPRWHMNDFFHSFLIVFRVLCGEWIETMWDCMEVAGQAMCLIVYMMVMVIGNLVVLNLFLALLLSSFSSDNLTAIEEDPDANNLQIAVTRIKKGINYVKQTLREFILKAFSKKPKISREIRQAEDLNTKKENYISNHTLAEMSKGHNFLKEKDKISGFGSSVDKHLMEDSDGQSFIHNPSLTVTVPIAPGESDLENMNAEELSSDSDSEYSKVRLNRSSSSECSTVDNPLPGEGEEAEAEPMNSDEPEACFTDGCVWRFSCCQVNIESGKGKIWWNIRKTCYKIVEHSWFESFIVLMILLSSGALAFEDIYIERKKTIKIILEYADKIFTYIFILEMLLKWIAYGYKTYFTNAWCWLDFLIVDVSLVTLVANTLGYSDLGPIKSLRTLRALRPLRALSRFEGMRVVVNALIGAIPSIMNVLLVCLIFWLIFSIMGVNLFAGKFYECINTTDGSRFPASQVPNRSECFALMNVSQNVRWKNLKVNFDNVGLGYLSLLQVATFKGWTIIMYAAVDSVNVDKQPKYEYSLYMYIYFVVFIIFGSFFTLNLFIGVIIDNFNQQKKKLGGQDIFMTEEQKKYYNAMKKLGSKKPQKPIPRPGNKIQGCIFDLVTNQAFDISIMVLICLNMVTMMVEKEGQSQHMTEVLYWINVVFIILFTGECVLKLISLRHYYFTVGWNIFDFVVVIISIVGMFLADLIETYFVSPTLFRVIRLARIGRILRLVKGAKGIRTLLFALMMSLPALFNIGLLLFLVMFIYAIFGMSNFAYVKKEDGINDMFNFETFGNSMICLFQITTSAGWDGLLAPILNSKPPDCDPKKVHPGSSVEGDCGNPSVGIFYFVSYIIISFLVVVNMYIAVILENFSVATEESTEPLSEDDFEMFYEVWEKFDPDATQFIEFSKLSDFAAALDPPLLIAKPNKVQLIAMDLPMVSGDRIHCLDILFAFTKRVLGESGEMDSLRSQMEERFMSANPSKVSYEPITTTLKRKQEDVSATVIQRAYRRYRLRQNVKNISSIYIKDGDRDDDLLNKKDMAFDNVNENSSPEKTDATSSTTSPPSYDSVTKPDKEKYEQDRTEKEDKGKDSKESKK
Chain of hNav1.7 (Q07699 whole entry partner, looked up): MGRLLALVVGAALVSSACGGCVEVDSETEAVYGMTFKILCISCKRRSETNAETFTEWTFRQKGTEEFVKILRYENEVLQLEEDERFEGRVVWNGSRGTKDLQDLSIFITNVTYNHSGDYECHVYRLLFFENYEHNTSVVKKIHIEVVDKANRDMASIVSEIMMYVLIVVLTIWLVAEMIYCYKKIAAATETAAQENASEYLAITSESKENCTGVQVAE

The assay concerns the target hNav1.7 (Homo sapiens (Human), UniProt Q15858). The assay can be described thus: Tritiated compound binding to membranes from cells expressing hNav1.7 and the β1 subunit (Nav1.7 LBA EVO). Conditions: competitive binding vs [3H]compound, membranes with hNav1.7 and β1 subunit. The method, then:
Example 64a. Tritiated Compound Binding to Membranes Isolated from Cells that Heterologously Express hNav1.7 and the β1 Subunit
Preparation of membranes containing recombinantly expressed sodium channels: Frozen recombinant cell pellets are thawed on ice and diluted to 4 times the cell pellet weight with ice cold 50 mM Tris HCl, pH 7.4 buffer. The cell suspensions are homogenized on ice using a motorized glass dounce homogeniser. Homogenates are further diluted 8.4 times with ice cold 50 mM Tris HCl, pH 7.4 buffer and then centrifuged at 200×g at 4° C. for 15 minutes. The supernatants are collected and centrifuged at 10000×g at 4° C. for 50 min. The pellets are then re-suspended in 100 mM NaCl, 20 mM Tris HCl, pH 7.4 buffer containing 1% v/v protease inhibitors (Calbiochem) and re-homogenized on ice. The homogenized membranes are then processed through a syringe equipped with a 26 gauge needle. Protein concentrations arer determined by Bradford Assay and the membranes are stored at −80° C.
Radioligand Binding Studies: Saturation experiments. A competitive NaV1.7 inhibitor having a methyl group is tritiated. Three tritiums are incorporated in place of methyl hydrogens to generate [^3H]compound. Binding of this radioligand is performed in 5 mL borosilicate glass test tubes at room temperature. Binding is initiated by adding membranes to increasing concentrations of [^3H]compound in 100 mM NaCl, 20 mM Tris HCl, pH 7.4 buffer containing 0.01% w/v bovine serum albumin (BSA) for 18 h. Non-specific binding is determined in the presence of 1 μM unlabeled compound. After 18 h, the reactants are filtered through GF/C glass fiber filters presoaked in 0.5% w/v polyethylene imine. Filters are washed with 15 mL ice cold 100 mM NaCl, 20 mM Tris HCl, pH7.4 buffer containing 0.25% BSA to separate bound from free ligand. [^3H]compound bound to filters is quantified by liquid scintillation counting.
Competitive binding experiments: Binding reactions are performed in 96-well polypropylene plates at room temperature for 18 h. In 360 μL, membranes are incubated with 100 pM [^3H]compound and increasing concentrations of Test Compound. Non-specific binding is defined in the presence of 1 μM unlabeled compound. Reactions are transferred and filtered through 96-well glass fiber/C filter plates presoaked with 0.5% polyethylene imine. The filtered reactions are washed 5 times with 200 μL ice cold buffer containing 0.25% BSA. Bound radioactivity is determined by liquid scintillation counting.
Data Analysis: For saturation experiments, non-specific binding is subtracted from total binding to provide specific binding and these values are recalculated in terms of pmol ligand bound per mg protein. Saturation curves are constructed and dissociation constants are calculated using the single site ligand binding model: Beq=(Bmax*X)/(X+Kd), where Beq is the amount of ligand bound at equilibrium, Bmax is the maximum receptor density, Kd is the dissociation constant for the ligand, and X is the free ligand concentration. For competition studies percent inhibition is determined and IC50 values are calculated using a 4 parameter logistic model (% inhibition=(A+((B−A)/(1+((x/C)^D)))) using XLfit, where A and B are the maximal and minimum inhibition respectively, C is the IC50 concentration and D is the (Hill) slope.
Example 64b. Tritiated Compound Binding to Membranes Isolated from Cells that Heterologous Express hNav1.7 and the β1 Subunit
Preparation of membranes containing recombinantly expressed sodium channels: Following the procedure described in 31a, and making modifications as required to: centrifuge supernatants at 100000×g instead of 10000×g; re-suspend pellets in a buffer containing 0.01% BSA in addition to 100 mM NaCl, 20 mM Tris HCl, pH 7.4 buffer, and 1% v/v […]; and storing membranes at −80° C. in single use aliquots instead of pooled. […]
The IC50 is the concentration needed to halve the response being measured. Lower therefore signals greater potency. On to `Cc1nc(O[C@H]2CC[C@H](c3cccc(C(F)(F)F)c3)C[C@@H]2N(C)C)ccc1S(=O)(=O)Nc1ccncn1` [Example 23, 6-(((1S,2S,4S)-2-(Dimethylamino)-4-(3-(trifluoromethyl)phenyl)cyclohexyl)oxy)-2-methyl-N-(pyrimidin-4-yl)pyridine-3-sulfonamide formate], for which the IC50 was determined as 8.3 nM. `CCc1cc(S(=O)(=O)Nc2ccncn2)cnc1O[C@H]1CC[C@H](c2cccc(C(F)(F)F)c2)C[C@@H]1N(C)C` [Example 24, 6-(((1S,2S,4S)-2-(Dimethylamino)-4-(3-(trifluoromethyl)phenyl)cyclohexyl)oxy)-5-ethyl-N-(pyrimidin-4-yl)pyridine-3-sulfonamide formate] had an IC50 of 66.4 nM.

Consider `CN(C)[C@H]1C[C@@H](c2cccc(OC(F)(F)F)c2)CC[C@@H]1Oc1ccc(S(=O)(=O)Nc2ccncn2)cn1` [Example 25, 6-(((1S,2S,4S)-2-(dimethylamino)-4-(3-(trifluoromethoxy)phenyl)cyclohexyl)oxy)-N-(pyrimidin-4-yl)pyridine-3-sulfonamide formate], for which the half-inhibitory concentration (IC50) was 44.8 nM. This IC50 and that of the compound before are within 1.5-fold of each other.

As to `O=S(=O)(Nc1ccncn1)c1ccc(O[C@H]2CC[C@H](c3cccc(C(F)(F)F)c3)C[C@@H]2N2CCCCC2)nc1` [Example 26, 6-(((1S,2S,4S)-2-(piperidin-1-yl)-4-(3-(trifluoromethyl)phenyl)cyclohexyl)oxy)-N-(pyrimidin-4-yl)pyridine-3-sulfonamide], the IC50 came to 4.88 nM. The value for `Cc1nc(O[C@H]2CC[C@H](c3cccc(OC(F)(F)F)c3)C[C@@H]2N(C)C)ccc1S(=O)(=O)Nc1ccncn1` [Example 28, 6-(((1S,2S,4S)-2-(Dimethylamino)-4-(3-(trifluoromethoxy)phenyl)cyclohexyl)oxy)-2-methyl-N-(pyrimidin-4-yl)pyridine-3-sulfonamide] was 4.11 nM; that for `Cc1nc(O[C@H]2CC[C@H](c3cccc(C(F)(F)F)c3)C[C@@H]2N2CCCC2)ccc1S(=O)(=O)Nc1ccncn1` [Example 29, 2-Methyl-N-(pyrimidin-4-yl)-6-(((1S,2S,4S)-2-(pyrrolidin-1-yl)-4-(3-(trifluoromethyl)phenyl)-cyclohexyl)oxy)pyridine-3-sulfonamide] was 67.4 nM; that for `Cc1nc(O[C@H]2CC[C@H](c3cccc(OC(F)(F)F)c3)C[C@@H]2N2CCCC2)ccc1S(=O)(=O)Nc1ccncn1` [Example 30, 2-Methyl-N-(pyrimidin-4-yl)-6-(((1S,2S,4S)-2-(pyrrolidin-1-yl)-4-(3-(trifluoromethoxy)phenyl)-cyclohexyl)oxy)pyridine-3-sulfonamide] was 16.6 nM.

With `CN(C)[C@H]1C[C@@H](c2cccc(C(F)(F)F)c2)CC[C@@H]1Oc1cc(Cl)c(S(=O)(=O)Nc2ccncn2)cn1` [Example 31, 4-Chloro-6-(((1S,2S,4S)-2-(dimethylamino)-4-(3-(trifluoromethyl)phenyl)cyclohexyl)oxy)-N-(pyrimidin-4-yl)pyridine-3-sulfonamide], the half-maximal inhibitory concentration (IC50) came to 1.89 nM. In the case of `Cc1cc(O[C@H]2CC[C@H](c3cccc(C(F)(F)F)c3)C[C@@H]2N(C)C)ncc1S(=O)(=O)Nc1ccncn1` [Example 32, 6-(((1S,2S,4S)-2-(Dimethylamino)-4-(3-(trifluoromethyl)phenyl)cyclohexyl)oxy)-4-methyl-N-(pyrimidin-4-yl)pyridine-3-sulfonamide] it was 2.07 nM. The value for `CCc1nc(O[C@H]2CC[C@H](c3cccc(C(F)(F)F)c3)C[C@@H]2N(C)C)ccc1S(=O)(=O)Nc1ccncn1` [Example 33, 6-(((1S,2S,4S)-2-(Dimethylamino)-4-(3-(trifluoromethyl)phenyl)cyclohexyl)oxy)-2-ethyl-N-(pyrimidin-4-yl)pyridine-3-sulfonamide] was 1.54 nM; that for `CN(C)[C@H]1C[C@@H](c2cccc(C(F)(F)F)c2)CC[C@@H]1Oc1ccc(S(=O)(=O)Nc2ccncn2)c(C2CC2)n1` [Example 34, 2-Cyclopropyl-6-(((1S,2S,4S)-2-(dimethylamino)-4-(3-(trifluoromethyl)phenyl)-cyclohexyl)oxy)-N-(pyrimidin-4-yl)pyridine-3-sulfonamide] was 1.15 nM; that for `Cc1nc(O[C@H]2CC[C@H](c3cccc(C(F)(F)F)c3)C[C@@H]2N(C)C2CCC2)ccc1S(=O)(=O)Nc1ccncn1` [Example 35, 6-(((1S,2S,4S)-2-(Cyclobutyl(methyl)amino)-4-(3-(trifluoromethyl)phenyl)cyclohexyl)oxy)-2-methyl-N-(pyrimidin-4-yl)pyridine-3-sulfonamide] was 1.12 nM. The value for `Cc1nc(O[C@H]2CC[C@H](c3ccc(Cl)c(C(F)(F)F)c3)C[C@@H]2N(C)C)ccc1S(=O)(=O)Nc1ccncn1` [Example 36, 6-(((1S,2S,4S)-4-(4-chloro-3-(trifluoromethyl)phenyl)-2-(dimethylamino)cyclohexyl)oxy)-2-methyl-N-(pyrimidin-4-yl)pyridine-3-sulfonamide] was 1.28 nM; that for `Cc1nc(O[C@H]2CC[C@H](c3cc(C(F)(F)F)ccc3Cl)C[C@@H]2N(C)C)ccc1S(=O)(=O)Nc1ccncn1` [Example 38, 6-(((1S,2S,4S)-4-(2-chloro-5-(trifluoromethyl)phenyl)-2-(dimethylamino)cyclohexyl)oxy)-2-methyl-N-(pyrimidin-4-yl)pyridine-3-sulfonamide] was 1.77 nM; that for `Cc1nc(O[C@H]2CC[C@H](c3cc(Cl)ccc3Cl)C[C@@H]2N(C)C)ccc1S(=O)(=O)Nc1ccncn1` [Example 39, 6-(((1S,2S,4S)-4-(2,5-dichlorophenyl)-2-(dimethylamino)cyclohexyl)oxy)-2-methyl-N-(pyrimidin-4-yl)pyridine-3-sulfonamide formate] was 0.935 nM. Turning to `O=S(=O)(Nc1ccncn1)c1cnc(O[C@H]2CC[C@H](c3cccc(C(F)(F)F)n3)C[C@@H]2N2CCCC2)c(Cl)c1` [Example 40, 5-chloro-N-(pyrimidin-4-yl)-6-(((1S,2S,4S)-2-(pyrrolidin-1-yl)-4-(6-(trifluoromethyl)pyridin-2-yl)cyclohexyl)oxy)pyridine-3-sulfonamide], the IC50 turned out to be 0.955 nM. The IC50 values of the last two compounds are within 1.5-fold of each other. In the case of `Cc1nc(O[C@H]2CC[C@H](c3cc(F)cc(C(F)(F)F)c3)C[C@@H]2N(C)C)ccc1S(=O)(=O)Nc1ccncn1` [Example 42, 6-(((1S,2S,4S)-2-(Dimethylamino)-4-(3-fluoro-5-(trifluoromethyl)phenyl)cyclohexyl)oxy)-2-methyl-N-(pyrimidin-4-yl)pyridine-3-sulfonamide] it was 0.72 nM.

Compound `CN(C)[C@H]1C[C@@H](c2cc(C(F)(F)F)ccc2F)CC[C@@H]1Oc1ccc(S(=O)(=O)Nc2ccncn2)c(Cl)n1` [Example 44, 2-Chloro-6-(((1S,2S,4S)-2-(dimethylamino)-4-(2-fluoro-5-(trifluoromethyl)phenyl)-cyclohexyl)oxy)-N-(pyrimidin-4-yl)pyridine-3-sulfonamide formate] gave an IC50 of 0.72 nM. In the case of `Cc1nc(O[C@H]2CC[C@H](c3ccc(F)c(C(F)(F)F)c3)C[C@@H]2N(C)C)ccc1S(=O)(=O)Nc1ccncn1` [Example 45, 6-(((1S,2S,4S)-2-(Dimethylamino)-4-(4-fluoro-3-(trifluoromethyl)phenyl)cyclohexyl)oxy)-2-methyl-N-(pyrimidin-4-yl)pyridine-3-sulfonamide formate] it was 0.913 nM; in that of `CCN(CC)[C@H]1C[C@@H](c2cccc(C(F)(F)F)c2)CC[C@@H]1Oc1ccc(S(=O)(=O)Nc2ccncn2)c(C)n1` [Example 47, 6-(((1S,2S,4S)-2-(Diethylamino)-4-(3-(trifluoromethyl)phenyl)cyclohexyl)oxy)-2-methyl-N-(pyrimidin-4-yl)pyridine-3-sulfonamide], 0.915 nM.

These data come from patent publication US12209075B2, “Pyridine-sulfonamide derivatives as sodium channel inhibitors” (GENENTECH, INC., priority 2018, dated 2025).
